Test results published in ChEMBL document CHEMBL4152386, “Discovery of a Novel Inhaled PI3Kδ Inhibitor for the Treatment of Respiratory Diseases” (J Med Chem, 2018).
Values after ≈ are worked out from the molar mass of the structure shown.

Tests used:
[1] = biological target: T1, Phosphatidylinositol 4,5-bisphosphate 3-kinase catalytic subunit delta isoform (Mus musculus, UniProt O35904); assay: Inhibition of mouse ABD-truncated p110delta catalytic subunit (unknown origin) expressed in Sf9 cells using diC8-PIP2 substrate incubated for 1 hr by fluorescence polarization assay
T1 sequence (O35904 whole entry): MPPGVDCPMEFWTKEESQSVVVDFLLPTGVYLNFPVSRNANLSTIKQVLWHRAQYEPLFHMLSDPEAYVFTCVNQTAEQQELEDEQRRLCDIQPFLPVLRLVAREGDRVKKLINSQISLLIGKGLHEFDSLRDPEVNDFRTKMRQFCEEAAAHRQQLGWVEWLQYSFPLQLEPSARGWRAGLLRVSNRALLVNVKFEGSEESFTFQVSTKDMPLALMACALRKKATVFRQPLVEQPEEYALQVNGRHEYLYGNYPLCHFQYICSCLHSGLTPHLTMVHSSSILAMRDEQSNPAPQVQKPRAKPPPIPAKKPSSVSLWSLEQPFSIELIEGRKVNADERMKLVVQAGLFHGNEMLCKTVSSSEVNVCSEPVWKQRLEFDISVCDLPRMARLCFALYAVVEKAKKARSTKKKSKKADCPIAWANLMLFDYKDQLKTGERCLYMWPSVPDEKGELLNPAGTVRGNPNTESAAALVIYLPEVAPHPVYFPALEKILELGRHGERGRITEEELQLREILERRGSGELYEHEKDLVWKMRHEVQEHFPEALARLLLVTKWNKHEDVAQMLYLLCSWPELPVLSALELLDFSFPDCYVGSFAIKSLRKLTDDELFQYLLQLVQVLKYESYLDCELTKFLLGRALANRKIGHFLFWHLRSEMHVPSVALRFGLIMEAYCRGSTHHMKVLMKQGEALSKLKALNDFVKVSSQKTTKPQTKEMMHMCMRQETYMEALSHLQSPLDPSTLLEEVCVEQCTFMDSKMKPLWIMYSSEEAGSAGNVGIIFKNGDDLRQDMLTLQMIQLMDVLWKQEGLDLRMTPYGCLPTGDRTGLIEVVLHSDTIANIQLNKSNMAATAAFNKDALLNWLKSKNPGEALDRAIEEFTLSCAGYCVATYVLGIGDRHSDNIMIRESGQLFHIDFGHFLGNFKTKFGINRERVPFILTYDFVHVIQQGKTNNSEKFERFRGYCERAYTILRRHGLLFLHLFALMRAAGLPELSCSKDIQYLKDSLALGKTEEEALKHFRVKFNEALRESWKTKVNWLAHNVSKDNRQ

[2] = biological target: Phosphatidylinositol 4,5-bisphosphate 3-kinase catalytic subunit gamma isoform (Homo sapiens, UniProt P48736); assay: Inhibition of recombinant human N-terminal His6-tagged full length p110gamma using PIP2 as substrate preincubated for 30 mins followed by substrate addition by HTRF assay
[3] = Drug metabolism in rat liver microsomes assessed as disappearance of parent compound at 5 uM after 30 mins in presence of NADPH by UPLC-MS/MS analysis; type: ADME, microsome; settings: read-out: Drug metabolism
[4] = Drug metabolism in rat liver microsomes assessed as disappearance of parent compound at 5 uM preincubated for 3 mins followed UDPG addition and measured after 120 mins by UPLC-MS/MS analysis; type: ADME, microsome; settings: read-out: Drug metabolism
[5] = Drug metabolism in human liver microsomes assessed as disappearance of parent compound at 5 uM after 30 mins in presence of NADPH by UPLC-MS/MS analysis; type: ADME, microsome; settings: read-out: Drug metabolism
[6] = Drug metabolism in human liver microsomes assessed as disappearance of parent compound at 5 uM preincubated for 3 mins followed UDPG addition and measured after 120 mins by UPLC-MS/MS analysis; type: ADME, microsome; settings: read-out: Drug metabolism
[7] = biological target: T2, Phosphatidylinositol 4,5-bisphosphate 3-kinase catalytic subunit delta isoform (Homo sapiens, UniProt O00329); assay: Inhibition of PI3Kdelta in human THP-1 cells assessed as reduction in M-CSF-stimulated AKT phosphorylation at Thr308 preincubated for 30 mins followed by M-CSF addition for 3 mins by ELISA; type: cell-based
T2 sequence (O00329 whole entry): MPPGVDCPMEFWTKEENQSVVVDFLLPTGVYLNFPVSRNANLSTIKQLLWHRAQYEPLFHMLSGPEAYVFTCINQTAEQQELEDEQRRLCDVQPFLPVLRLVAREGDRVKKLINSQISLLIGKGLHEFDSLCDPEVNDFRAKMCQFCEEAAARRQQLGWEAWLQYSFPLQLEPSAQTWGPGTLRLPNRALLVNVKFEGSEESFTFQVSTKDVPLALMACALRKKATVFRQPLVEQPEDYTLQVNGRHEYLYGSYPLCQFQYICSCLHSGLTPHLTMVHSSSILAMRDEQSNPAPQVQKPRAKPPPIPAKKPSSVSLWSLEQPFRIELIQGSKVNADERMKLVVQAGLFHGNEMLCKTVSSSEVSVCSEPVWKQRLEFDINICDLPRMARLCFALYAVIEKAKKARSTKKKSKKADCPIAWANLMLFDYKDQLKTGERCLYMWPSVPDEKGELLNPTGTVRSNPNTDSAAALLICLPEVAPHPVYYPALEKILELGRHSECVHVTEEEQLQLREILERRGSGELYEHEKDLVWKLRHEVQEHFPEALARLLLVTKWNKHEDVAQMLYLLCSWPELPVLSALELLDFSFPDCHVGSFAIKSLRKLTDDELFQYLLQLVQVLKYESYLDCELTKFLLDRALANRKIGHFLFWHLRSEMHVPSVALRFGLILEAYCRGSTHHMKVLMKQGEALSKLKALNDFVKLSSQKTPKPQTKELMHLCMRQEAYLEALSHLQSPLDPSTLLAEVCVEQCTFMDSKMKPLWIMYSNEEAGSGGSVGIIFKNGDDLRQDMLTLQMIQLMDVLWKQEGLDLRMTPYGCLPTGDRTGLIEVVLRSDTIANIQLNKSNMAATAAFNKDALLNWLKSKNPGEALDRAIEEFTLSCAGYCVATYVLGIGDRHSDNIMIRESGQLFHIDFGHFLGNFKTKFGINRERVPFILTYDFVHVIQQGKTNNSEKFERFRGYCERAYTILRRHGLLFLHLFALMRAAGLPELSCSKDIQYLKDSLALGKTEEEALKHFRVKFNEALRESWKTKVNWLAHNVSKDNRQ

[8] = Apparent permeability of the compound at 20 uM by PAMPA assay; type: ADME
[9] = Thermodynamic aqueous solubility of the compound at pH 7.4; type: physicochemical; settings: buffer, read-out: Therm_solubility
[10] = AUC in Wistar rat at 1 mg/kg, iv; type: ADME, organism-based; settings: in vivo
[11] = Cmax in Wistar rat at 1 mg/kg, iv; type: ADME, organism-based; set-up: dose 1 mg/kg, route intravenous; settings: in vivo
[12] = Clearance in Wistar rat at 1 mg/kg, iv; type: ADME, organism-based; settings: in vivo
[13] = Volume of distribution at steady state in Wistar rat at 1 mg/kg, iv; type: ADME, organism-based; settings: in vivo, read-out: Vdss
[14] = Half life in Wistar rat at 1 mg/kg, iv; type: ADME, organism-based; settings: in vivo
[15] = Oral bioavailability in Wistar rat at 1 mg/kg; type: ADME, organism-based; settings: in vivo
[16] = Protein binding in rat plasma at 1 uM by equilibrium dialysis; type: ADME, cell-free; settings: read-out: PPB (converted)
[17] = AUC in Wistar rat lung at 0.015 mg/kg, it administered as solution; type: ADME, organism-based; settings: in vivo, inhaled_or_intranasal
[18] = AUC in Wistar rat lung at 0.3 mg/kg, it administered as suspension; type: ADME, organism-based; settings: in vivo, inhaled_or_intranasal
[19] = AUC in Wistar rat plasma at 0.015 mg/kg, it administered as solution; type: ADME, organism-based; settings: inhaled or intranasal
[20] = AUC in Wistar rat plasma at 0.3 mg/kg, it administered as suspension; type: ADME, organism-based; settings: inhaled or intranasal
[21] = Ratio of AUC in lung to plasma of Wistar rat at 0.015 mg/kg, it administered as solution; type: ADME, organism-based
[22] = Ratio of AUC in lung to plasma of Wistar rat at 0.3 mg/kg, it administered as suspension; type: ADME, organism-based
[23] = Cmax in Wistar rat lung at 0.015 mg/kg, it administered as solution; type: ADME, organism-based; set-up: dose 0.015 mg/kg; settings: inhaled or intranasal
[24] = Cmax in Wistar rat lung at 0.3 mg/kg, it administered as suspension; type: ADME, organism-based; set-up: dose 0.3 mg/kg; settings: inhaled or intranasal
[25] = Cmax in Wistar rat plasma at 0.015 mg/kg, it administered as solution; type: ADME, organism-based; set-up: dose 0.015 mg/kg; settings: inhaled or intranasal
[26] = Cmax in Wistar rat plasma at 0.3 mg/kg, it administered as suspension; type: ADME, organism-based; set-up: dose 0.3 mg/kg; settings: inhaled or intranasal
[27] = Half life in Wistar rat lung at 0.015 mg/kg, it administered as solution; type: ADME, organism-based; settings: inhaled or intranasal
[28] = Half life in Wistar rat lung at 0.3 mg/kg, it administered as suspension; type: ADME, organism-based; settings: inhaled or intranasal
[29] = Half life in Wistar rat plasma at 0.015 mg/kg, it administered as solution; type: ADME, organism-based; settings: inhaled or intranasal
[30] = Half life in Wistar rat plasma at 0.3 mg/kg, it administered as suspension; type: ADME, organism-based; settings: inhaled or intranasal
Rattus norvegicus [31] = assay: (§1) Anti-inflammatory activity in Brown Norway rat model of ovalbumin-induced inflammation assessed inhibition of eosinophil infiltration in bronchoalveolar lavage at 0.3 mg/kg, it administered 1 hr before ovalbumin aerosol challenge and measured 24 hrs post challenge by hematology analysis relative to control; type: functional; settings: inhaled or nasal
Rattus norvegicus [32] = assay: as §1, with “neutrophil” for “eosinophil”; type: functional; settings: inhaled or nasal
Rattus norvegicus [33] = assay: as §1, with “0.1” for “0.3”; type: functional; settings: inhaled or nasal
Rattus norvegicus [34] = assay: as §1, with “neutrophils” for “eosinophil”, “0.1” for “0.3”; type: functional; settings: inhaled or nasal
[35] = biological target: Voltage-gated inwardly rectifying potassium channel KCNH2 (Homo sapiens, UniProt Q12809); assay: Inhibition of human ERG up to 10 uM
Rattus norvegicus [36] = assay: fCmax in Brown Norway rat model of ovalbumin-induced inflammation assessed inhibition of eosinophil infiltration in bronchoalveolar lavage at 0.3 mg/kg, it administered 1 hr before ovalbumin aerosol challenge and measured 24 hrs post challenge by hematology analysis relative to control; type: organism-based; settings: in vivo, inhaled_or_intranasal
[37] = biological target: PI3-kinase p110-delta/p85-alpha (Homo sapiens, UniProt O00329)
Description: Inhibition of recombinant human N-terminal His-tagged full length p110delta/recombinant human full length p85alpha using PIP2 as substrate preincubated for 30 mins followed by substrate addition by HTRF assay

[38] = biological target: PI3-kinase p110-alpha/p85-alpha (Homo sapiens, UniProt P42336)
Description: Inhibition of recombinant human N-terminal His6-tagged full length p110alpha/recombinant human full length p85alpha using PIP2 as substrate preincubated for 30 mins followed by substrate addition by HTRF assay

PI3K p110 beta/p85 alpha = PI3K p110 beta/p85 alpha (Homo sapiens, UniProt P42338)
Description: Inhibition of recombinant human N-terminal His6-tagged full length p110beta/recombinant human full length p85alpha using PIP2 as substrate preincubated for 30 mins followed by substrate addition and HTRF assay

Rattus norvegicus [39] = assay: as §1, with “neutrophil” for “eosinophil”, “1” for “0.3”; type: functional; settings: inhaled or nasal
[40] = other tissue, inhaled_or_intranasal
[41] = Wistar, lung and plasma, inhaled or intranasal

Sequence of PI3-kinase p110-delta/p85-alpha (P27986 whole entry, one chain of several): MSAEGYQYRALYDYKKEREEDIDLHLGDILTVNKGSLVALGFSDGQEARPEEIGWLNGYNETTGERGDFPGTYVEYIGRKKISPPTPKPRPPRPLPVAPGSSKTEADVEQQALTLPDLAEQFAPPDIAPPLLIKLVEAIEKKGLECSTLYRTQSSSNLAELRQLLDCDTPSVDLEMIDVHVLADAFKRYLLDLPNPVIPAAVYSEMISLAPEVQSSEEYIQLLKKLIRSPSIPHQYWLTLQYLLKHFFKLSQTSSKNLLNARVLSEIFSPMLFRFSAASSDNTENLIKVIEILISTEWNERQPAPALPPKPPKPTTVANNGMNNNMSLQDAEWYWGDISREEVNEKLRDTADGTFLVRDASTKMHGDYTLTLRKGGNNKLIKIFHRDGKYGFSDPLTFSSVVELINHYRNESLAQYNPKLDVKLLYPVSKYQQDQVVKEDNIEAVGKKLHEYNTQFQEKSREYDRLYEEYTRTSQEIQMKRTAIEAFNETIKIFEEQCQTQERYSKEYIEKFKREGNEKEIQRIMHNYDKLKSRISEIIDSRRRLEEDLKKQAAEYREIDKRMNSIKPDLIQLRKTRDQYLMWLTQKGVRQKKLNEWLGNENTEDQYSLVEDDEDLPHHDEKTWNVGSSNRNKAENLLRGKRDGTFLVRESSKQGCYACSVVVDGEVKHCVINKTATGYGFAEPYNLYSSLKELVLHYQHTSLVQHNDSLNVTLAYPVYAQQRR
Sequence of PI3-kinase p110-alpha/p85-alpha (P27986 whole entry): as the sequence (P27986 whole entry, one chain of several) above
Sequence of PI3-kinase p110-alpha/p85-alpha (P42336 whole entry): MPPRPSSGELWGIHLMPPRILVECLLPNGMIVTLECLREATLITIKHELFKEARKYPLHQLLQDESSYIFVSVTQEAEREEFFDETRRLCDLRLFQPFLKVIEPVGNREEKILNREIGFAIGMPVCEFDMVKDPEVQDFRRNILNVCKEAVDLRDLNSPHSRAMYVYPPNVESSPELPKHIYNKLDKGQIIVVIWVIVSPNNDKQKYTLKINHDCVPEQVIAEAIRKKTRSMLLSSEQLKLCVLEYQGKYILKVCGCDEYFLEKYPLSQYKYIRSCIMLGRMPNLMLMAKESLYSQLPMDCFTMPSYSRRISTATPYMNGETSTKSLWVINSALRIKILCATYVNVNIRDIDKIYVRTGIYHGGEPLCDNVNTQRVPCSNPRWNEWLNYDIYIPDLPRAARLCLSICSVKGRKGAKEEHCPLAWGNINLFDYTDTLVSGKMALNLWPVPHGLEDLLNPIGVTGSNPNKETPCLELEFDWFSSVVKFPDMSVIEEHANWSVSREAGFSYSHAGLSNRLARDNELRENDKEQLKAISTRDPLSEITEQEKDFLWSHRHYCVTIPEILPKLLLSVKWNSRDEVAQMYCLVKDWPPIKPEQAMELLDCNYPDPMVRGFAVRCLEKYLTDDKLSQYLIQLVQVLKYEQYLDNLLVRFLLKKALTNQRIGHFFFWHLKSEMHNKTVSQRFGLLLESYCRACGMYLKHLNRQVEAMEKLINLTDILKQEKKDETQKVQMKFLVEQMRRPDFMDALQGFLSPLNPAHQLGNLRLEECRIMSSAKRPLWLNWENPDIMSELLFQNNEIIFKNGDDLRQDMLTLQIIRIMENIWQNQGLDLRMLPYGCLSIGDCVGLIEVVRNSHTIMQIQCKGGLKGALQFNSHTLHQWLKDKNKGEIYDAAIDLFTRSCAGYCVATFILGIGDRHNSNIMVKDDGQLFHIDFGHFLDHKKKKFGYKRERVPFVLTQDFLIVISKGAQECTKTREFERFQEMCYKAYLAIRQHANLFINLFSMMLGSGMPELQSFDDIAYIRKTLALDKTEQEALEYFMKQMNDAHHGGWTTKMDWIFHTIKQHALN
Sequence of PI3K p110 beta/p85 alpha (P27986 whole entry): as the sequence (P27986 whole entry, one chain of several) above
Sequence of PI3K p110 beta/p85 alpha (P42338 whole entry): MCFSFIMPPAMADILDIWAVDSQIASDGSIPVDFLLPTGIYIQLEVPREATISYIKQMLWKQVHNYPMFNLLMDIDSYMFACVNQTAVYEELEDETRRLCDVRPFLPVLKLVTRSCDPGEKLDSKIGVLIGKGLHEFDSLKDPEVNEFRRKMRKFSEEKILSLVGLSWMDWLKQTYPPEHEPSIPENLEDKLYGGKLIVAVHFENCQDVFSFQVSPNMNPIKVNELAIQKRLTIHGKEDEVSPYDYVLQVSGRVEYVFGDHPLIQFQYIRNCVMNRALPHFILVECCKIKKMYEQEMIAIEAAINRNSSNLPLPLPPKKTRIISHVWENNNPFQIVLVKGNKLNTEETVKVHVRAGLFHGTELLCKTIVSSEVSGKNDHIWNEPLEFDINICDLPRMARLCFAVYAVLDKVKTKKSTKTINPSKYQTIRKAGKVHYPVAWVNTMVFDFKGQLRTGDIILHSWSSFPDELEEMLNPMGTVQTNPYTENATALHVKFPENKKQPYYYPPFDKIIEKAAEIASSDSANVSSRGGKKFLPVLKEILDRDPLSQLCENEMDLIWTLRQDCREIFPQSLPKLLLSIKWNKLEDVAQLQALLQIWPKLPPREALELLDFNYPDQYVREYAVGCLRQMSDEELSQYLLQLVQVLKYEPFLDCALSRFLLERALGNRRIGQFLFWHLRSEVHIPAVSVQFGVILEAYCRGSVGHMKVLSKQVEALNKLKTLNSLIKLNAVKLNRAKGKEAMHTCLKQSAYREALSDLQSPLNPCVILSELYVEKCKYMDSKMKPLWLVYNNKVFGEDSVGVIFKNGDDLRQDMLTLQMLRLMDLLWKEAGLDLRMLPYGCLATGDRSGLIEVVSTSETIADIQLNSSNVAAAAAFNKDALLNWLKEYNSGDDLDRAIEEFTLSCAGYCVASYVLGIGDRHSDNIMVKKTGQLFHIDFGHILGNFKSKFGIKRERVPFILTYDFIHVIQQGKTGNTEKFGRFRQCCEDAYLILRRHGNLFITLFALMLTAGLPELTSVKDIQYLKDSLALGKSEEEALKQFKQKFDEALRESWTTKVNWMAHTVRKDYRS
Sequence of Phosphatidylinositol 4,5-bisphosphate 3-kinase catalytic subunit gamma isoform (P48736 whole entry, canonical isoform): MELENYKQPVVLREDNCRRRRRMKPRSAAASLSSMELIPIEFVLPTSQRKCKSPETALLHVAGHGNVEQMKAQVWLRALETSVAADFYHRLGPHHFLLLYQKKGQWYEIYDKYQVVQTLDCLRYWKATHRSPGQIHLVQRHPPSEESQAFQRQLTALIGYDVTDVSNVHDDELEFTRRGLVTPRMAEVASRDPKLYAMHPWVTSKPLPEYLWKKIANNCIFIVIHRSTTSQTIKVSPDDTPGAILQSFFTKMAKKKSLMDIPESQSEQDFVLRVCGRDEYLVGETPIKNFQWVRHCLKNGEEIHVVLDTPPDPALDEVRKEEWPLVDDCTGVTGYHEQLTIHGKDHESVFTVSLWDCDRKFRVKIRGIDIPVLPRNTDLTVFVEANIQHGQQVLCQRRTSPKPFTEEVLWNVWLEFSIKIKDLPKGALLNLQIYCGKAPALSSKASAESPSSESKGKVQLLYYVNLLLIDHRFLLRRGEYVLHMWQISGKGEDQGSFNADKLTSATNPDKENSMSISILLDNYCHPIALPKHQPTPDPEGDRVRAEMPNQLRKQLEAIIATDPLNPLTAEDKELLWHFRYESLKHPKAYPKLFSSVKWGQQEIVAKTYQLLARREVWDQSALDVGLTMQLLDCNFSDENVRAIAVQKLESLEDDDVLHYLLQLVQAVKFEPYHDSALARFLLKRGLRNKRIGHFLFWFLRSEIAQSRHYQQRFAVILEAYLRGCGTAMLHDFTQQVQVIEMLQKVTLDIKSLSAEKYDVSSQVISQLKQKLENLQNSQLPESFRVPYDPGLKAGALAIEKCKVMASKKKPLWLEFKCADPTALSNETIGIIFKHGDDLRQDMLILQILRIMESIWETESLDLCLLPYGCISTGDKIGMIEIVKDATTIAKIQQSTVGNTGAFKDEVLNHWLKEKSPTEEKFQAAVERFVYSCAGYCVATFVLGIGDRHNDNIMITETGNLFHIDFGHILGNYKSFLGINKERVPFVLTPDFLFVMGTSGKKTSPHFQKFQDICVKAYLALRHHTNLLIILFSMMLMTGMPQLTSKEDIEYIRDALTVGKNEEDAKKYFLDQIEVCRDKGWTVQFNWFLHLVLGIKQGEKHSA

Row | SMILES | IC50 [2] [nM] | metabolised at 0.5 h, 5 µM [3] [%] | metabolised at 2 h, 5 µM [4] [%] | metabolised at 0.5 h, 5 µM [5] [%] | metabolised at 2 h, 5 µM [6] [%] | IC50 [7] [nM] | Papp at 20 µM [8] [×10⁻⁶ cm/s] | solubility thermodynamic [9] [µg/mL] | AUC [10] [ng·h/mL] | Cmax [11] [ng/mL] | clearance [12] [mL/min/kg] | Vd [13] [L/kg] | half-life [14] [h] | bioavailability [15] [%] | fraction unbound at 1 µM [16] | AUC [17] [µg·h/g] | AUC [18] [µg·h/g] | AUC [19] [ng·h/mL] | AUC [20] [ng·h/mL] | Cmax [23] [ng/g] | further results
1 | Cc1ccccc1-n1c(CN2CNc3c(N)ncnc32)nc2cccc(C)c2c1=O | – | – | – | – | – | – | – | – | – | – | – | – | – | – | – | – | – | – | – | – | IC50 [1]: 130 nM
2 | Cc1ccn2nc([C@H](C)Nc3ncnc4[nH]cc(-c5cc(NS(C)(=O)=O)cc6[nH]ccc56)c34)n(-c3ccccc3)c(=O)c12 | 36 | 32 | 10 | 68 | 30 | 2.7 | 0.2 | 3 (≈ 5.05 µM) | 171 | 455 | 96 | 5.2 | 1.7 | 1 | 0.011 | 15.5 | 459.6 | 5.3 | 96.5 | 3400 | Ratio [21, 40]: 2925; Ratio [22, 40]: 4763; Cmax [24]: 73300 ng/g; Cmax [25]: 1.4 ng/mL; Cmax [26]: 16400 ng/mL; half-life [27]: 2.8 h; half-life [28]: 4.5 h; half-life [29]: 3.2 h; half-life [30]: 3.2 h; inhibition in vivo at 0.3 mg/kg (Rattus norvegicus [31]): 55%; inhibition in vivo at 0.3 mg/kg (Rattus norvegicus [32]): 77%; inhibition in vivo at 0.1 mg/kg (Rattus norvegicus [33]): 21%; inhibition in vivo at 0.1 mg/kg (Rattus norvegicus [34]): 42%; inhibition (INH) [35]: Not Active; fCmax (Rattus norvegicus [36]): 0.3 nM; IC50 [37]: 0.5 nM; IC50 [38]: 1900 nM; IC50 (PI3K p110 beta/p85 alpha): 10 nM
3 | Cc1ccn2nc([C@H](C)Nc3ncnc(N)c3-c3ccc(O)c(F)c3)n(-c3ccccc3)c(=O)c12 | 11 | 44 | 96 | 71 | 97 | 4.4 | 1.7 | 36 (≈ 76.4 µM) | 149 | 236 | 112 | 5.2 | 1 | 13 | 0.054 | 0.2 | 30.6 | 6.4 | 148 | 700 | Kp [21, 41]: 31; Kp [22, 41]: 207; Cmax [24]: 18600 ng/g; Cmax [25]: 36.3 ng/mL; half-life [27]: 4.7 h; half-life [28]: 5.7 h; half-life [29]: 0.7 h; half-life [30]: 1.1 h; inhibition in vivo at 1 mg/kg (Rattus norvegicus [39]): 37%; IC50 [37]: 0.5 nM; IC50 [38]: 1100 nM; IC50 (PI3K p110 beta/p85 alpha): 87 nM
